Results reported in article PMC3302575 (Biochemistry, 2011).

Columns and labels:
Assay in all cases: copurification, absorption spectroscopy of native protein
Format in all cases: binding
[1] = molecular target: T1, zebrafish CRY4 (ZfCRY4) (Danio rerio, UniProt Q9I912); conditions: Sf21 medium with or without F0; pH 7.5
T1 sequence (Q9I912 1-558): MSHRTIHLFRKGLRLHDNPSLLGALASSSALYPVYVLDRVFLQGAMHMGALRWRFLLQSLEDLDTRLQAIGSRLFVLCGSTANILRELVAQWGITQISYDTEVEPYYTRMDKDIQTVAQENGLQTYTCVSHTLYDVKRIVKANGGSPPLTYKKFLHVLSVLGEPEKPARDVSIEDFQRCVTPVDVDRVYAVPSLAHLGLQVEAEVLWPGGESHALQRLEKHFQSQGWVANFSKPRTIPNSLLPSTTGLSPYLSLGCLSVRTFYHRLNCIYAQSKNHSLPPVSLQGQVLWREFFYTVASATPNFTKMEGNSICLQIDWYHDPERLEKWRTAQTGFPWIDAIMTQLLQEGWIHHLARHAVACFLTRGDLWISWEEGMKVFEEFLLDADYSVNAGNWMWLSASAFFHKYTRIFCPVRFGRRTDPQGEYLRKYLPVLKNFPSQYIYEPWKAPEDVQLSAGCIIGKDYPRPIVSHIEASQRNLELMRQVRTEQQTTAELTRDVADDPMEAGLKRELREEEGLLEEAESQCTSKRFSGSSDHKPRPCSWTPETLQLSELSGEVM

[2] = molecular target: Drosophila cryptochrome (DmCRY) (Drosophila melanogaster, UniProt O77059); conditions: Sf21 medium with or without F0; pH 7.5
[3] = molecular target: A. thaliana CRY2 (AtCRY2) (Arabidopsis thaliana, UniProt Q96524); conditions: Sf21 medium with or without F0; pH 7.4
Chain of A. thaliana CRY2 (AtCRY2) (Q96524 whole entry): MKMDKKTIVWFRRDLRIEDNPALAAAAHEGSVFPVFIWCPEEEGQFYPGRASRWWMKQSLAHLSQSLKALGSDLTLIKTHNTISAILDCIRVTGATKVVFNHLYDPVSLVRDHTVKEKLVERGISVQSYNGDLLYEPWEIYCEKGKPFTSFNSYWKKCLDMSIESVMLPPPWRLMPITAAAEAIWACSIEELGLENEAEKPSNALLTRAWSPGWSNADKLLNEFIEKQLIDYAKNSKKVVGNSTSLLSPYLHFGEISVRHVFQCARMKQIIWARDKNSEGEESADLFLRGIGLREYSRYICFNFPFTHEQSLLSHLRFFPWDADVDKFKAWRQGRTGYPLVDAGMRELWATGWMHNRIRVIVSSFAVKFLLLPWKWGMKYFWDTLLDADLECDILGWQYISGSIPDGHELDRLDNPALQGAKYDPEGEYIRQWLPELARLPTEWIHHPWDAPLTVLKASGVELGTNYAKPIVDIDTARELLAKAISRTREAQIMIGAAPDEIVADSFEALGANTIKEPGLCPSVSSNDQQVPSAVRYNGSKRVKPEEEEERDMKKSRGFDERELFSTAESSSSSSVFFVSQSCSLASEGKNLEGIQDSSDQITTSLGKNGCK

Chain of Drosophila cryptochrome (DmCRY) (O77059 whole entry): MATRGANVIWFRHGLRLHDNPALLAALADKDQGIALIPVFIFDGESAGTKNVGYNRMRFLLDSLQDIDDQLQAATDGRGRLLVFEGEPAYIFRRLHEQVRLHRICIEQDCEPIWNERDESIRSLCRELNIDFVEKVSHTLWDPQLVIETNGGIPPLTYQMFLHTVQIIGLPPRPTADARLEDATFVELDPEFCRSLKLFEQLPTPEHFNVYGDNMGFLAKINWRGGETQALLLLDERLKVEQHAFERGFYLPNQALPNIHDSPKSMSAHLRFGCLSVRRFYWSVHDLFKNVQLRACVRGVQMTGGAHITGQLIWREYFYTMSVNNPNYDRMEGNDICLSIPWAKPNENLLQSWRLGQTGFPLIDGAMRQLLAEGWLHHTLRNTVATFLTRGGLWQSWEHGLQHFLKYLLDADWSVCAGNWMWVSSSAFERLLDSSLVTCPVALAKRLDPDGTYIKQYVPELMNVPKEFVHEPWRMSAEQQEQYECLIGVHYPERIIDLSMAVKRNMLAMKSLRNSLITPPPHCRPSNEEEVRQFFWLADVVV

Cc1cc2nc3c(=O)[nH]c(=O)nc-3n(C[C@H](O)[C@H](O)[C@H](O)COP(=O)(O)OP(=O)(O)OC[C@H]3O[C@@H](n4cnc5c(N)ncnc54)[C@H](O)[C@@H]3O)c2cc1C [FAD]
copurification, absorption spectroscopy of native protein [1]: both AtCRY2 (A,B) and ZfCRY4 (C,D), expressed with and without F0, contained FAD | copurification, absorption spectroscopy of native protein [2]: exhibited only the spectra of enzyme-bound FAD (Fig. 4E,F) | copurification, absorption spectroscopy of native protein [3]: both AtCRY2 (A,B) and ZfCRY4 (C,D), expressed with and without F0, contained FAD
